# Source: PubChem BioAssay AID2060599 (Molecular Pharmacology Branch, DTP, NCI, 2025)
# System: 817829-284-R-J1-PDC complex spheroids, viability
# Assay: Anticancer human tumor 817829-284-R-J1-PDC patient-derived colon adenocarcinoma cell line growth inhibition [CLK]
# Conditions: for IC50: curve of first compound; for viability, T/C: stronger effect = lower value
# How it was run: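 Multi-cell-type spheroids combined patient-derived tumor cells with HUVEC endothelial cells and human mesenchymal stem cells. Paired agents were dosed in half-log steps down from about clinical Cmax, or from 10 microM where Cmax was unknown.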
# 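Further: spheroids exposed to the agents for seven days before readout.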
compound,measurement,setting,value
NC(=O)C(=Cn1cnc(-c2cc(C(F)(F)F)cc(C(F)(F)F)c2)n1)c1cncnc1 + CN1CCN(c2cc(C(=O)Nc3cc4cc(-c5cnn(C)c5)ccc4cn3)ccn2)CC1,IC50,second compound 0.0316 µM,< 0.00949 µM
same,IC50,second compound 0.1 µM,< 0.00949 µM
same,IC50,second compound 0.316 µM,< 0.00949 µM
same,IC50,second compound 1 µM,< 0.00949 µM
same,IC50,second compound 3.16 µM,< 0.00949 µM
same,IC50,second compound 10 µM,< 0.00949 µM
same,"viability, T/C","second compound 0.0316 µM, first compound 0.00949 µM",21.1%
same,"viability, T/C","second compound 0.0316 µM, first compound 0.03 µM",19.4%
same,"viability, T/C","second compound 0.0316 µM, first compound 0.0949 µM",8.87%
same,"viability, T/C","second compound 0.0316 µM, first compound 0.3 µM",2.37%
same,"viability, T/C","second compound 0.0316 µM, first compound 0.949 µM",1.3%
same,"viability, T/C","second compound 0.0316 µM, first compound 3 µM",0.87%
same,"viability, T/C","second compound 0.1 µM, first compound 0.00949 µM",7.2%
same,"viability, T/C","second compound 0.1 µM, first compound 0.03 µM",4.72%
same,"viability, T/C","second compound 0.1 µM, first compound 0.0949 µM",1.8%
same,"viability, T/C","second compound 0.1 µM, first compound 0.3 µM",0.15%
same,"viability, T/C","second compound 0.1 µM, first compound 0.949 µM",0.19%
same,"viability, T/C","second compound 0.1 µM, first compound 3 µM",0.22%
same,"viability, T/C","second compound 0.316 µM, first compound 0.00949 µM",0.46%
same,"viability, T/C","second compound 0.316 µM, first compound 0.03 µM",0.1%
same,"viability, T/C","second compound 0.316 µM, first compound 0.0949 µM",0.07%
same,"viability, T/C","second compound 0.316 µM, first compound 0.3 µM",0.05%
same,"viability, T/C","second compound 0.316 µM, first compound 0.949 µM",0.06%
same,"viability, T/C","second compound 0.316 µM, first compound 3 µM",0.17%
same,"viability, T/C","second compound 1 µM, first compound 0.00949 µM",0.06%
same,"viability, T/C","second compound 1 µM, first compound 0.03 µM",0.09%
same,"viability, T/C","second compound 1 µM, first compound 0.0949 µM",0.13%
same,"viability, T/C","second compound 1 µM, first compound 0.3 µM",0.1%
same,"viability, T/C","second compound 1 µM, first compound 0.949 µM",0.12%
same,"viability, T/C","second compound 1 µM, first compound 3 µM",0.29%
same,"viability, T/C","second compound 3.16 µM, first compound 0.00949 µM",0.06%
same,"viability, T/C","second compound 3.16 µM, first compound 0.03 µM",0.16%
same,"viability, T/C","second compound 3.16 µM, first compound 0.0949 µM",0.19%
same,"viability, T/C","second compound 3.16 µM, first compound 0.3 µM",0.12%
same,"viability, T/C","second compound 3.16 µM, first compound 0.949 µM",0.17%
same,"viability, T/C","second compound 3.16 µM, first compound 3 µM",0.21%
same,"viability, T/C","second compound 10 µM, first compound 0.00949 µM",0.02%
same,"viability, T/C","second compound 10 µM, first compound 0.03 µM",0.09%
same,"viability, T/C","second compound 10 µM, first compound 0.0949 µM",0.13%
same,"viability, T/C","second compound 10 µM, first compound 0.3 µM",0.1%
same,"viability, T/C","second compound 10 µM, first compound 0.949 µM",0.17%
same,"viability, T/C","second compound 10 µM, first compound 3 µM",0.11%
Nc1ccccc1NC(=O)c1ccc(CNC(=O)OCc2cccnc2)cc1 + CN1CCN(c2cc(C(=O)Nc3cc4cc(-c5cnn(C)c5)ccc4cn3)ccn2)CC1,IC50,second compound 0.0316 µM,0.223 µM
same,IC50,second compound 0.1 µM,< 0.0316 µM
same,IC50,second compound 0.316 µM,< 0.0316 µM
same,IC50,second compound 1 µM,< 0.0316 µM
same,IC50,second compound 3.16 µM,< 0.0316 µM
same,IC50,second compound 10 µM,< 0.0316 µM
same,"viability, T/C","second compound 0.0316 µM, first compound 0.0316 µM",61.1%
same,"viability, T/C","second compound 0.0316 µM, first compound 0.1 µM",70.6%
same,"viability, T/C","second compound 0.0316 µM, first compound 0.316 µM",39.5%
same,"viability, T/C","second compound 0.0316 µM, first compound 1 µM",21.9%
same,"viability, T/C","second compound 0.0316 µM, first compound 3.16 µM",3.59%
same,"viability, T/C","second compound 0.0316 µM, first compound 10 µM",0.06%
same,"viability, T/C","second compound 0.1 µM, first compound 0.0316 µM",15.1%
same,"viability, T/C","second compound 0.1 µM, first compound 0.1 µM",14.2%
same,"viability, T/C","second compound 0.1 µM, first compound 0.316 µM",13.4%
same,"viability, T/C","second compound 0.1 µM, first compound 1 µM",5.61%
same,"viability, T/C","second compound 0.1 µM, first compound 3.16 µM",0.84%
same,"viability, T/C","second compound 0.1 µM, first compound 10 µM",0.03%
same,"viability, T/C","second compound 0.316 µM, first compound 0.0316 µM",1.55%
same,"viability, T/C","second compound 0.316 µM, first compound 0.1 µM",1.54%
same,"viability, T/C","second compound 0.316 µM, first compound 0.316 µM",1.41%
same,"viability, T/C","second compound 0.316 µM, first compound 1 µM",0.56%
same,"viability, T/C","second compound 0.316 µM, first compound 3.16 µM",0.03%
same,"viability, T/C","second compound 0.316 µM, first compound 10 µM",0.03%
same,"viability, T/C","second compound 1 µM, first compound 0.0316 µM",0.11%
same,"viability, T/C","second compound 1 µM, first compound 0.1 µM",0.14%
same,"viability, T/C","second compound 1 µM, first compound 0.316 µM",0.11%
same,"viability, T/C","second compound 1 µM, first compound 1 µM",0.1%
same,"viability, T/C","second compound 1 µM, first compound 3.16 µM",0.05%
same,"viability, T/C","second compound 1 µM, first compound 10 µM",0.06%
same,"viability, T/C","second compound 3.16 µM, first compound 0.0316 µM",0.1%
same,"viability, T/C","second compound 3.16 µM, first compound 0.1 µM",0.12%
same,"viability, T/C","second compound 3.16 µM, first compound 0.316 µM",0.15%
same,"viability, T/C","second compound 3.16 µM, first compound 1 µM",0.15%
same,"viability, T/C","second compound 3.16 µM, first compound 3.16 µM",0.16%
same,"viability, T/C","second compound 3.16 µM, first compound 10 µM",0.22%
same,"viability, T/C","second compound 10 µM, first compound 0.0316 µM",0.04%
same,"viability, T/C","second compound 10 µM, first compound 0.1 µM",0.07%
same,"viability, T/C","second compound 10 µM, first compound 0.316 µM",0.1%
same,"viability, T/C","second compound 10 µM, first compound 1 µM",0.3%
same,"viability, T/C","second compound 10 µM, first compound 3.16 µM",0.1%
same,"viability, T/C","second compound 10 µM, first compound 10 µM",0.1%
